ChEMBL document CHEMBL2321873, “1-(4-Phenylpiperazin-1-yl)-2-(1H-pyrazol-1-yl)ethanones as novel CCR1 antagonists” (Bioorg Med Chem Lett, 2013)
Activity calls are given as the source filed them. The calls are words filed in the database; no cut-off is given here.

Experiments:
[1] = tested on: Cytomegalovirus; experiment: Antagonist activity at CMV US28 assessed as inhibition of calcium flux at 10 uM
[2] = target: T1, C-C chemokine receptor type 4 (Homo sapiens) (UniProt P51679); experiment: Antagonist activity at CCR4 (unknown origin) assessed as inhibition of calcium flux at 10 uM; format: functional
T1 sequence (whole entry): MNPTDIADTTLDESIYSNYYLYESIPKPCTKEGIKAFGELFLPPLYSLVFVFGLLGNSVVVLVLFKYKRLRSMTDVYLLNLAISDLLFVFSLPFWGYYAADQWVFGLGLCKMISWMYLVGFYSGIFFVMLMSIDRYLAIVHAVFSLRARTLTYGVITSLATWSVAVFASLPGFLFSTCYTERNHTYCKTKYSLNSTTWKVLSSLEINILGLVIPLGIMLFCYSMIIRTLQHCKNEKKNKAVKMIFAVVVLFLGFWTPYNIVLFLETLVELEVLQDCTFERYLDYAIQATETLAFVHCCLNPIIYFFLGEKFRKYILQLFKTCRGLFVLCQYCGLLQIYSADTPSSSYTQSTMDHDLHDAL

[3] = target: C-C chemokine receptor type 1 (Mus musculus, UniProt P51675); experiment: Displacement of [125I]-CCL3/MIP-1alpha from CCR1 in mouse WEHI274.1 cells; format: cell-based
[4] = target: T2, C-C chemokine receptor type 3 (Homo sapiens) (UniProt P51677); experiment: Antagonist activity at CCR3 (unknown origin) assessed as inhibition of chemotaxis at 10 uM
T2 sequence (whole entry): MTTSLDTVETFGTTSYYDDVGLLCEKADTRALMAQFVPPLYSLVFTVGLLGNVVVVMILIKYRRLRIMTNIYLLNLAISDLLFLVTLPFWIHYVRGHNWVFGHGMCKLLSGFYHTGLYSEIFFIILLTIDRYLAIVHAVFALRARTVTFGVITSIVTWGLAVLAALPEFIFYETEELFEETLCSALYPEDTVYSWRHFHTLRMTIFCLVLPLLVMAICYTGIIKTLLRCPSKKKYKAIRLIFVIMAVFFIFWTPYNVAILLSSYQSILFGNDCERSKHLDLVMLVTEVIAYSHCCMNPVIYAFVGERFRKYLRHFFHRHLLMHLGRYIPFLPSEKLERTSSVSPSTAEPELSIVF

[5] = tested on: Rattus norvegicus; experiment: Toxicity in Sprague-Dawley rat assessed as effect on blood chemistry at 70 to 360 mg/kg, po after 7 days; format: organism-based; design: dose 70-360 mg/kg, route oral; details: in vivo, 168 h
[6] = target: Voltage-gated inwardly rectifying potassium channel KCNH2 (Homo sapiens, UniProt Q12809); experiment: Binding affinity to human ERG by patch clamp assay
[7] = target: T3, C-X-C chemokine receptor type 2 (Homo sapiens) (UniProt P25025); experiment: Antagonist activity at CXCR2 (unknown origin) assessed as inhibition of chemotaxis at 10 uM
T3 sequence (whole entry): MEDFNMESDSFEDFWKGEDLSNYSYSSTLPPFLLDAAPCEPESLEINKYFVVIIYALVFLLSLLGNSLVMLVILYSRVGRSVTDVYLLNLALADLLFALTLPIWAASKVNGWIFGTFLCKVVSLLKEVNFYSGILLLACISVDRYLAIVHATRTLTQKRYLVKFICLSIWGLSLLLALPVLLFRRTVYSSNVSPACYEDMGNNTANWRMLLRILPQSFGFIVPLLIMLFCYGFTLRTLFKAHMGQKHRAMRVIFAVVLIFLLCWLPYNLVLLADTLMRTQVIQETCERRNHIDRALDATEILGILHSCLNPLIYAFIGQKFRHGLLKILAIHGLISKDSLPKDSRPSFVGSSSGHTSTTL

[8] = target: T4, C-X-C chemokine receptor type 1 (Homo sapiens) (UniProt P25024); experiment: Antagonist activity at CXCR1 (unknown origin) assessed as inhibition of calcium flux at 10 uM; format: functional
T4 sequence (whole entry): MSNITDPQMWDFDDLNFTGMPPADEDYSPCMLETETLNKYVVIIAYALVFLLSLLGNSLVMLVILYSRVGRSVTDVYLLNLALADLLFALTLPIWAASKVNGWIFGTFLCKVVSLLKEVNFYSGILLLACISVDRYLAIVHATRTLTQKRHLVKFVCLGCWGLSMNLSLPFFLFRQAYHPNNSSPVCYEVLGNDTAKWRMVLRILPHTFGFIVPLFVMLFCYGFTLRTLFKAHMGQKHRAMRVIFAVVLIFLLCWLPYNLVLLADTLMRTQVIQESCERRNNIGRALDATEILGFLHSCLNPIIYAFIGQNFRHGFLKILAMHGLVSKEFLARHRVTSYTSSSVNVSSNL

[9] = target: T2, C-C chemokine receptor type 3 (Homo sapiens); experiment: Antagonist activity at CCR3 (unknown origin) assessed as inhibition of calcium flux at 10 uM; format: functional
[10] = tested on: Salmonella typhimurium; experiment: Genotoxicity in Salmonella typhimurium by Ames test in absence of S9 fractions; format: toxicity, organism-based; details: salmonella enterica subsp. enterica serovar typhimurium
[11] = target: Atypical chemokine receptor 3 (Homo sapiens) (UniProt P25106); experiment: Binding affinity to CXCR7 (unknown origin) at 10 uM by radioligand displacement assay
[12] = target: Cytochrome P450 2C19 (Homo sapiens, UniProt P33261); experiment: Inhibition of CYP2C19 (unknown origin); format: ADME
[13] = target: T5, Atypical chemokine receptor 1 (Homo sapiens) (UniProt Q16570); experiment: Antagonist activity at Duffy (unknown origin) assessed as inhibition of calcium flux at 10 uM; format: functional
T5 sequence (whole entry): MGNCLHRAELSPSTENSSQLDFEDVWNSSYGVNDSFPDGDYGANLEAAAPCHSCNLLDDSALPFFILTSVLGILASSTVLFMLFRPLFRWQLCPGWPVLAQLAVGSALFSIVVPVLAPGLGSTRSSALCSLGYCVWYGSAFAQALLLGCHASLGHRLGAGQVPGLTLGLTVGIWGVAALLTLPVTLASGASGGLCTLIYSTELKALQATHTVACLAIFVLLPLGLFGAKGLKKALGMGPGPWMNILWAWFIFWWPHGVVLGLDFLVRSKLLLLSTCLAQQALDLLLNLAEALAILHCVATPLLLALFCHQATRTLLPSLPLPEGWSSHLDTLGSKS

[14] = target: C-C chemokine receptor type 5 (Homo sapiens) (UniProt P51681); experiment: Antagonist activity at CCR5 (unknown origin) assessed as inhibition of chemotaxis at 10 uM
[15] = tested on: Cytomegalovirus; experiment: Antagonist activity at CMV US28 assessed as inhibition of chemotaxis at 10 uM
[16] = Plasma clearance in Sprague-Dawley rat at 1 mg/kg, iv; format: ADME, organism-based; design: dose 1 mg/kg, route intravenous
[17] = Half life in Sprague-Dawley rat at 1 mg/kg, iv; format: ADME, organism-based; design: dose 1 mg/kg, route intravenous; details: in vivo
[18] = tested on: Rattus norvegicus; experiment: Toxicity in Sprague-Dawley rat assessed as necropsy at 70 to 360 mg/kg, po after 7 days; format: organism-based; design: dose 70-360 mg/kg, route oral; details: in vivo, 168 h
[19] = target: T3, C-X-C chemokine receptor type 2 (Homo sapiens); experiment: Antagonist activity at CXCR2 (unknown origin) assessed as inhibition of calcium flux at 10 uM; format: functional

C-C chemokine receptor type 1, sequence (P51675 whole entry): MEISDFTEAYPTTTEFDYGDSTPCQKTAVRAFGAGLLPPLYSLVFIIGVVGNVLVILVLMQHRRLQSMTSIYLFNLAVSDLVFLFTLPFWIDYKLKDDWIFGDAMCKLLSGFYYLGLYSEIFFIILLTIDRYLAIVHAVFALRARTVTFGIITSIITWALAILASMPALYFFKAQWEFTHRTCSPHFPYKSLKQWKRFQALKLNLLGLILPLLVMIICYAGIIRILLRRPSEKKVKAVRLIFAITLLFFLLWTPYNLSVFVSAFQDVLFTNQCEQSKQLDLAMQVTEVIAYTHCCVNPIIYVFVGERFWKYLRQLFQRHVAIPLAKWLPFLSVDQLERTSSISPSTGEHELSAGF
Voltage-gated inwardly rectifying potassium channel KCNH2, sequence (Q12809 whole entry): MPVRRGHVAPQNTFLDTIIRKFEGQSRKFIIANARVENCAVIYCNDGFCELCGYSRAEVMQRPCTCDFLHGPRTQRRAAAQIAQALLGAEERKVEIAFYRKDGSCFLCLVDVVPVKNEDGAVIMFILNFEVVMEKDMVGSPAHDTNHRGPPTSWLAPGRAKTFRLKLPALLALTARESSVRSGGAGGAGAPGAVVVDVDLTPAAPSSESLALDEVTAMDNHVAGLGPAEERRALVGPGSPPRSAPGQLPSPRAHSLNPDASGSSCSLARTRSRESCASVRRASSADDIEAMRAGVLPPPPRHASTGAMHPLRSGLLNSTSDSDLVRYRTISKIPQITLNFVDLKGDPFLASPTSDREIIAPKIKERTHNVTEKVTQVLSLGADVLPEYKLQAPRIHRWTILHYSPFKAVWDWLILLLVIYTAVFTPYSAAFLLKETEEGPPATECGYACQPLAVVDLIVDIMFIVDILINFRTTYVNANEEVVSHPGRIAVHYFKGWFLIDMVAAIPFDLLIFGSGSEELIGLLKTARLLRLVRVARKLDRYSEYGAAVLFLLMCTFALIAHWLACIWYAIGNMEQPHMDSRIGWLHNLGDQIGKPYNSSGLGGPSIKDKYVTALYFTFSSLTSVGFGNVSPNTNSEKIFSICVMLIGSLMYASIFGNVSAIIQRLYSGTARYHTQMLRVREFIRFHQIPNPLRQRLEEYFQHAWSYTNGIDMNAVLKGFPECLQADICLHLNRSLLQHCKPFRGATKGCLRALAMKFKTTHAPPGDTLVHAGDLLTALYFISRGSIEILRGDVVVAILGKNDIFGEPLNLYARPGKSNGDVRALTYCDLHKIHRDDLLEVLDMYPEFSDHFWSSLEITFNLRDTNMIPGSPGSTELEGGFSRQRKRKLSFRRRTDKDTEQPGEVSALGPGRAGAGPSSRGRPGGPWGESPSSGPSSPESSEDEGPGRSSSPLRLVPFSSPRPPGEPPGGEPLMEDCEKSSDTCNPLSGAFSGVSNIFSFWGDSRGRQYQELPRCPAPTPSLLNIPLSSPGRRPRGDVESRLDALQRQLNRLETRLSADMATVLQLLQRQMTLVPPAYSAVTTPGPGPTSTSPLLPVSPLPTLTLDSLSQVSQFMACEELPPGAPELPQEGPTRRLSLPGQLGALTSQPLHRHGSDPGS
Atypical chemokine receptor 3 (Homo sapiens), sequence (P25106 whole entry): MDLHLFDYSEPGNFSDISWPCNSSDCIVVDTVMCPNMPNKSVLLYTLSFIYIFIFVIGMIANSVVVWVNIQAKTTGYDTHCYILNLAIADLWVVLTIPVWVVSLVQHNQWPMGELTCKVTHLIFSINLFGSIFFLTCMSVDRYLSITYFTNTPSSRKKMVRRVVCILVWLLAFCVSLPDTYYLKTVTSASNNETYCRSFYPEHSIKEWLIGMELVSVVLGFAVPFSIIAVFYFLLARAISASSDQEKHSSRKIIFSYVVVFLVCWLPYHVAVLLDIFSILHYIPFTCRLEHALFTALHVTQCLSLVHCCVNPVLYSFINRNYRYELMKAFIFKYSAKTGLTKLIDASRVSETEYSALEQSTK
Cytochrome P450 2C19, sequence (P33261 whole entry): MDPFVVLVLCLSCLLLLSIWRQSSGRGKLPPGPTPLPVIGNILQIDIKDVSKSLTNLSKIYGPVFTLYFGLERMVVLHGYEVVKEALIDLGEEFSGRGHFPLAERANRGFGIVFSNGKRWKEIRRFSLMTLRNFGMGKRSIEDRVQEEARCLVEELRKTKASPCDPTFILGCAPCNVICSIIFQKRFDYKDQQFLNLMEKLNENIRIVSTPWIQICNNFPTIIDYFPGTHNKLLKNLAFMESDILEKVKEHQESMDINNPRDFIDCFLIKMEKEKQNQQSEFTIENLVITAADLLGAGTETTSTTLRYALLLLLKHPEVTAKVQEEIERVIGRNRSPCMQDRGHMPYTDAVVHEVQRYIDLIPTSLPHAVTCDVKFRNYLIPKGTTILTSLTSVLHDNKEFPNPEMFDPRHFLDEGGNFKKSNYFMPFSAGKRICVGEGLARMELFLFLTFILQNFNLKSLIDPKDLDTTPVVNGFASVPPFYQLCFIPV
C-C chemokine receptor type 5 (Homo sapiens), sequence (P51681 whole entry, looked up): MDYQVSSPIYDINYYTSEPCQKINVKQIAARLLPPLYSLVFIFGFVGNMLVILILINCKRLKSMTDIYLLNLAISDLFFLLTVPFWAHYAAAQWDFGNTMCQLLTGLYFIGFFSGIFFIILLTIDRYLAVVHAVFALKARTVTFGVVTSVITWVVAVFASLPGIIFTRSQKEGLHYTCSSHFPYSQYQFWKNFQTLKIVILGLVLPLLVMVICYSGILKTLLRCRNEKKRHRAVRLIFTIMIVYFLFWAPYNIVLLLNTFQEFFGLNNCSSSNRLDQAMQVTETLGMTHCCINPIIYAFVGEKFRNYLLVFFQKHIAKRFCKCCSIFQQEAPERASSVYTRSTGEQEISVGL

Q: Which results are given for COc1cc(N2CCN(C(=O)Cn3nc(C(F)(F)F)c(Cl)c3C)CC2)ccc1Cl?
A: inhibition [1]: inactive; inhibition [2]: inactive; IC50 [3]: 3 µM; inhibition [4]: inactive; Activity [5]: Non-toxic; IC50 [6]: 16 µM; inhibition [7]: inactive; inhibition [8]: inactive; inhibition [9]: inactive; Activity [10]: Non-toxic; Activity [11]: inactive; IC50 [12]: 6 µM; inhibition [13]: inactive; inhibition [14]: inactive; inhibition [15]: inactive; clearance [16]: 20 mL/min/kg; half-life [17]: 2.2 h; Activity [18]: Non-toxic; inhibition [19]: inactive
